In the CheMixHub viscosity set:
± gives the uncertainty stated by the source.

Test: xn = mol fraction of the nth substance listed
Conditions: 101 kPa

CCOCCO + OCCOCCO
viscosity (293.15 K, x1 = 0.0582): 33.17 ± 0.16 mPa·s
viscosity (293.15 K, x1 = 0.0952): 30.25 ± 0.15 mPa·s
viscosity (293.15 K, x1 = 0.2037): 23.28 ± 0.12 mPa·s
viscosity (293.15 K, x1 = 0.3098): 18.21 ± 0.091 mPa·s
viscosity (293.15 K, x1 = 0.4062): 14.48 ± 0.074 mPa·s
viscosity (293.15 K, x1 = 0.4503): 13.03 ± 0.067 mPa·s
viscosity (293.15 K, x1 = 0.5003): 11.5 ± 0.06 mPa·s
viscosity (293.15 K, x1 = 0.5413): 10.37 ± 0.055 mPa·s
viscosity (293.15 K, x1 = 0.5988): 8.935 ± 0.048 mPa·s
viscosity (293.15 K, x1 = 0.6952): 6.844 ± 0.038 mPa·s
viscosity (293.15 K, x1 = 0.8031): 4.921 ± 0.03 mPa·s
viscosity (293.15 K, x1 = 0.9002): 3.465 ± 0.021 mPa·s
viscosity (293.15 K, x1 = 0.9508): 2.759 ± 0.017 mPa·s
viscosity (298.15 K, x1 = 0.0511): 26.45 ± 0.13 mPa·s
viscosity (298.15 K, x1 = 0.1023): 23.41 ± 0.12 mPa·s
viscosity (298.15 K, x1 = 0.2003): 18.57 ± 0.093 mPa·s
viscosity (298.15 K, x1 = 0.2998): 14.7 ± 0.075 mPa·s
viscosity (298.15 K, x1 = 0.3988): 11.61 ± 0.061 mPa·s
viscosity (298.15 K, x1 = 0.4514): 10.25 ± 0.054 mPa·s
viscosity (298.15 K, x1 = 0.4998): 9.068 ± 0.049 mPa·s
viscosity (298.15 K, x1 = 0.5476): 8.079 ± 0.044 mPa·s
viscosity (298.15 K, x1 = 0.5996): 7.096 ± 0.04 mPa·s
viscosity (298.15 K, x1 = 0.6983): 5.447 ± 0.032 mPa·s
viscosity (298.15 K, x1 = 0.7991): 4.05 ± 0.025 mPa·s
viscosity (298.15 K, x1 = 0.882): 3.061 ± 0.019 mPa·s
viscosity (298.15 K, x1 = 0.95): 2.337 ± 0.015 mPa·s
viscosity (303.15 K, x1 = 0.0643): 18.69 ± 0.094 mPa·s
viscosity (303.15 K, x1 = 0.0932): 17.45 ± 0.088 mPa·s
viscosity (303.15 K, x1 = 0.2072): 13.23 ± 0.068 mPa·s
viscosity (303.15 K, x1 = 0.3008): 10.56 ± 0.056 mPa·s
viscosity (303.15 K, x1 = 0.4001): 8.317 ± 0.046 mPa·s
viscosity (303.15 K, x1 = 0.4496): 7.372 ± 0.041 mPa·s
viscosity (303.15 K, x1 = 0.4939): 6.612 ± 0.038 mPa·s
viscosity (303.15 K, x1 = 0.5508): 5.751 ± 0.034 mPa·s
viscosity (303.15 K, x1 = 0.5913): 5.201 ± 0.031 mPa·s
viscosity (303.15 K, x1 = 0.701): 3.93 ± 0.024 mPa·s
viscosity (303.15 K, x1 = 0.7959): 3.051 ± 0.019 mPa·s
viscosity (303.15 K, x1 = 0.899): 2.267 ± 0.014 mPa·s
viscosity (303.15 K, x1 = 0.9218): 2.117 ± 0.013 mPa·s

CCOCCO + OCCOCCOCCO
viscosity (293.15 K, x1 = 0.0493): 36.7 ± 0.23 mPa·s
viscosity (293.15 K, x1 = 0.1039): 32.11 ± 0.2 mPa·s
viscosity (293.15 K, x1 = 0.1964): 25.21 ± 0.15 mPa·s
viscosity (293.15 K, x1 = 0.3004): 18.99 ± 0.12 mPa·s
viscosity (293.15 K, x1 = 0.3949): 14.53 ± 0.087 mPa·s
viscosity (293.15 K, x1 = 0.4468): 12.49 ± 0.074 mPa·s
viscosity (293.15 K, x1 = 0.5005): 10.66 ± 0.063 mPa·s
viscosity (293.15 K, x1 = 0.5512): 9.194 ± 0.055 mPa·s
viscosity (293.15 K, x1 = 0.6003): 7.883 ± 0.047 mPa·s
viscosity (293.15 K, x1 = 0.7017): 5.752 ± 0.035 mPa·s
viscosity (293.15 K, x1 = 0.7946): 4.246 ± 0.027 mPa·s
viscosity (293.15 K, x1 = 0.9032): 2.957 ± 0.018 mPa·s
viscosity (293.15 K, x1 = 0.941): 2.603 ± 0.016 mPa·s
viscosity (298.15 K, x1 = 0.0425): 31.4 ± 0.2 mPa·s
viscosity (298.15 K, x1 = 0.1132): 26.58 ± 0.17 mPa·s
viscosity (298.15 K, x1 = 0.198): 21.56 ± 0.13 mPa·s
viscosity (298.15 K, x1 = 0.2956): 16.85 ± 0.1 mPa·s
viscosity (298.15 K, x1 = 0.3992): 12.84 ± 0.077 mPa·s
viscosity (298.15 K, x1 = 0.4535): 11.09 ± 0.066 mPa·s
viscosity (298.15 K, x1 = 0.5008): 9.696 ± 0.058 mPa·s
viscosity (298.15 K, x1 = 0.5433): 8.635 ± 0.052 mPa·s
viscosity (298.15 K, x1 = 0.5935): 7.463 ± 0.045 mPa·s
viscosity (298.15 K, x1 = 0.69): 5.545 ± 0.034 mPa·s
viscosity (298.15 K, x1 = 0.8038): 3.871 ± 0.024 mPa·s
viscosity (298.15 K, x1 = 0.8966): 2.774 ± 0.017 mPa·s
viscosity (298.15 K, x1 = 0.95): 2.248 ± 0.014 mPa·s
viscosity (303.15 K, x1 = 0.0543): 26.39 ± 0.17 mPa·s
viscosity (303.15 K, x1 = 0.0954): 24.22 ± 0.15 mPa·s
viscosity (303.15 K, x1 = 0.2034): 19.01 ± 0.12 mPa·s
viscosity (303.15 K, x1 = 0.2991): 15.11 ± 0.092 mPa·s
viscosity (303.15 K, x1 = 0.4003): 11.78 ± 0.071 mPa·s
viscosity (303.15 K, x1 = 0.4492): 10.39 ± 0.063 mPa·s
viscosity (303.15 K, x1 = 0.5007): 9.084 ± 0.055 mPa·s
viscosity (303.15 K, x1 = 0.5429): 8.086 ± 0.049 mPa·s
viscosity (303.15 K, x1 = 0.5978): 6.967 ± 0.043 mPa·s
viscosity (303.15 K, x1 = 0.6987): 5.187 ± 0.033 mPa·s
viscosity (303.15 K, x1 = 0.8008): 3.732 ± 0.023 mPa·s
viscosity (303.15 K, x1 = 0.9005): 2.597 ± 0.016 mPa·s
viscosity (303.15 K, x1 = 0.95): 2.081 ± 0.013 mPa·s
